Measured values taken from ChEMBL document CHEMBL1129763, “Acylhydrazones as M1/M3 selective muscarinic agonists” (Bioorg Med Chem Lett, 1996).

Experiments:
[1] = biological target: T1, Muscarinic acetylcholine receptor M1 (Rattus norvegicus, UniProt P08482); experiment: Ability to displace [3H]- pirenzepine from M1 receptor in rat hippocampal membranes; type: cell membranes, Hippocampus
T1 sequence (P08482 whole entry): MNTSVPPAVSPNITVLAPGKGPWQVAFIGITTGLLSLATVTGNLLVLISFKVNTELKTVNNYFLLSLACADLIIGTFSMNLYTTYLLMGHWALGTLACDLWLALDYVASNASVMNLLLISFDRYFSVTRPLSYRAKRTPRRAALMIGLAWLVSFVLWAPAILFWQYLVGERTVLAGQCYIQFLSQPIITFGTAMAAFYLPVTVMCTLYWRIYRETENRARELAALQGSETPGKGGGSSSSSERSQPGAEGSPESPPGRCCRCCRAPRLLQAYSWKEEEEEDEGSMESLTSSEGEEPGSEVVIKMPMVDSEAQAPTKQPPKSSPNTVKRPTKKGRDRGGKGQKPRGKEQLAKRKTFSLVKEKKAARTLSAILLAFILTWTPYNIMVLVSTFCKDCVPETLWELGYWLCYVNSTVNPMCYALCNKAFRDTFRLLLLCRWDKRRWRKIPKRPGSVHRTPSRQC

[2] = biological target: Muscarinic acetylcholine receptor M3 (Cavia porcellus) (UniProt Q8VH26); experiment: Compound was evaluated for intrinsic activity at M3 receptor by measuring isometric contractions of the isolated guinea pig trachea; type: tissue-based
Muscarinic acetylcholine receptor M3 (Cavia porcellus), sequence (Q8VH26 1-587): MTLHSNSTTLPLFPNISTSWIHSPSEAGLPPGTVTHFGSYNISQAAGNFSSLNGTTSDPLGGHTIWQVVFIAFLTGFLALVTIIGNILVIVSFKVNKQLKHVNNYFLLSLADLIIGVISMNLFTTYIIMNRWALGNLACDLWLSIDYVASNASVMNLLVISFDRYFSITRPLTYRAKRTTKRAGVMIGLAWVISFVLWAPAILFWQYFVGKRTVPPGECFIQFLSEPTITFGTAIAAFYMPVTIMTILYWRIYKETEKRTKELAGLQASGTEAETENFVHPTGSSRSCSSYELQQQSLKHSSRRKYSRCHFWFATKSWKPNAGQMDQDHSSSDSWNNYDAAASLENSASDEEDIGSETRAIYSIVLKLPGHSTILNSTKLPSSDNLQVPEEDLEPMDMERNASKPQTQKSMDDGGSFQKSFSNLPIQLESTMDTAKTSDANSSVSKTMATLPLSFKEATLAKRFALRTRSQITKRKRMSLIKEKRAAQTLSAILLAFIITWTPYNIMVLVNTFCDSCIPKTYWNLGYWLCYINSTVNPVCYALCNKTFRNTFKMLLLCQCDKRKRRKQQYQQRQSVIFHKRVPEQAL

## CC1OC2(CCN(C)CC2)C/C1=N\NC(=O)C1CCCCC1 (centres undefined)
[1]
  Ki: 38 µM

## CC1OC2(CCN(C)CC2)C/C1=N\NC(=O)Cc1ccccc1 (centres undefined)
[1]
  Ki: 30 µM

## CC1OC2(CCN(C)CC2)C/C1=N\NC(=O)c1ccc(C2CCCCC2)cc1 (centres undefined)
[1]
  Ki: 4.8 µM
[2]
  Intrinsic activity: 78%

## CC1OC2(CCN(C)CC2)C/C1=N\NC(=O)CCCCC1CCCCC1 (centres undefined)
[1]
  Ki: 8 µM

## CC(=O)N/N=C1\CC2(CCN(C)CC2)OC1C (centres undefined)
[1]
  Ki: 100 µM
[2]
  Intrinsic activity: 91%

## CC1OC2(CCN(C)CC2)C/C1=N\NC(=O)c1ccccc1 (centres undefined)
[1]
  Ki: 78 µM

## CC1OC2(CCN(C)CC2)C/C1=N\NC(=O)CCCC1CCCCC1 (centres undefined)
[1]
  Ki: 13.6 µM

## CCCCCCCC(=O)N(C)/N=C1\CC2(CCN(C)CC2)OC1C (centres undefined)
[1]
  Ki: 8.8 µM

## COC(=O)N/N=C1\CC2(CCN(C)CC2)OC1C (centres undefined)
[1]
  Ki: 25 µM

## CCCC(=O)N(C)/N=C1\CC2(CCN(C)CC2)OC1C (centres undefined)
[1]
  Ki: 16 µM

## CCCCCCCCC(=O)N/N=C1\CC2(CCN(C)CC2)OC1C (centres undefined)
[1]
  Ki: 9 µM

## CCCCCCCC(=O)N/N=C1\CC2(CCN(C)CC2)OC1C (centres undefined)
[1]
  Ki: 9.5 µM
[2]
  Intrinsic activity: 81%

## CC1OC2(CCN(C)CC2)C/C1=N\NC(=O)CCCc1ccccc1 (centres undefined)
[1]
  Ki: 34 µM

## CC(=O)N(C)/N=C1\CC2(CCN(C)CC2)OC1C (centres undefined)
[1]
  Ki: 60 µM

## CCC(=O)N/N=C1\CC2(CCN(C)CC2)OC1C (centres undefined)
[1]
  Ki: 76 µM

## CC1OC2(CCN(C)CC2)C/C1=N\NC(=O)Cc1ccc2ccccc2c1 (centres undefined)
[1]
  Ki: 10 µM

## CCCCC(=O)N/N=C1\CC2(CCN(C)CC2)OC1C (centres undefined)
[1]
  Ki: 41 µM

## CC(C)CC(=O)N/N=C1\CC2(CCN(C)CC2)OC1C (centres undefined)
[1]
  Ki: 90 µM

## CC1OC2(CCN(C)CC2)C/C1=N\NC(=O)CC1CCCCC1 (centres undefined)
[1]
  Ki: 30 µM

## CC(C)C(=O)N/N=C1\CC2(CCN(C)CC2)OC1C (centres undefined)
[1]
  Ki: 28 µM

## CCCC(=O)N/N=C1\CC2(CCN(C)CC2)OC1C (centres undefined)
[1]
  Ki: 65 µM

## CCCCCCCCCC(=O)N/N=C1\CC2(CCN(C)CC2)OC1C (centres undefined)
[1]
  Ki: 14.4 µM

## CCCCCCC(=O)N/N=C1\CC2(CCN(C)CC2)OC1C (centres undefined)
[1]
  Ki: 25 µM

## CCCCCC(=O)N/N=C1\CC2(CCN(C)CC2)OC1C (centres undefined)
[1]
  Ki: 25 µM

## CC1OC2(CCN(C)CC2)C/C1=N\NC(=O)C(C)(C)C (centres undefined)
[1]
  Ki: 15.2 µM

## CC(=O)N/N=C1\CC2(CCNCC2)OC1C (centres undefined)
[1]
  Ki: 180 µM
